Results reported in article PMC2553845, “A Specificity Map for the PDZ Domain Family” (PLoS Biology, 2008).
Entries after “also recorded” stand apart in the source; their conditions may differ. Where two headings read alike, the source gives them in different places. Where no end group is shown, it is not given here.

Legend:
SCRIB PDZ domains = assay: Competition ELISA, binding to the SCRIB PDZ domains; design: species or system Human
Experimental: (§1) Peptides were synthesized with acetylated C termini. The binding affinities of peptides for PDZ domains were determined as 50% inhibition concentration (IC50) values using competition ELISAs, as described. The IC50 value was defined as the concentration of peptide that blocked 50% of PDZ domain binding to immobilized peptide.

[1] = molecular target: T1, first PDZ domain of ZO-1 (TJP1–1) (Homo sapiens, UniProt Q07157); assay: biochemical; format: binding
T1 construct: the first PDZ domain of ZO-1 (TJP1–1); GST; made in house; host or cells: E. coli
T1 sequence (Q07157 23-110 limits assumed): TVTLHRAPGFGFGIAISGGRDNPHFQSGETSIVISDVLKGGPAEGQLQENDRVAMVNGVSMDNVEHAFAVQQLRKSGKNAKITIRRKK

SCRIB-1 = molecular target: T2, SCRIB-1 (Homo sapiens, UniProt Q14160); assay: Competition ELISA, peptide affinity for PDZ domain; format: binding
T2 construct: synthetic peptide that targets SCRIB PDZ domains 1, 2, and 3; GST; made in house; host or cells: E. coli
T2 sequence (Q14160 728-815 limits assumed): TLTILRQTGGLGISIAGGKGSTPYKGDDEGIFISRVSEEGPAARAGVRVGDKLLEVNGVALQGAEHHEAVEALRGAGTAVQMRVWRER
Experimental: as §1

SCRIB-3 = molecular target: T3, SCRIB-3 (Homo sapiens, UniProt Q14160); assay: Competition ELISA, peptide affinity for PDZ domain; format: binding
T3 construct: synthetic peptide that targets SCRIB PDZ domains 1, 2, and 3; GST; made in house; host or cells: E. coli
T3 sequence (Q14160 1004-1093 limits assumed): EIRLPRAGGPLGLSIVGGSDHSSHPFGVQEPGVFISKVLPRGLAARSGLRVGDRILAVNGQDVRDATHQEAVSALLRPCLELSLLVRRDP
Experimental: as §1

SCRIB-2 = molecular target: T4, SCRIB-2 (Homo sapiens, UniProt Q14160); assay: Competition ELISA, peptide affinity for PDZ domain; format: binding
T4 construct: synthetic peptide that targets SCRIB PDZ domains 1, 2, and 3; GST; made in house; host or cells: E. coli
T4 sequence (Q14160 862-950 limits assumed): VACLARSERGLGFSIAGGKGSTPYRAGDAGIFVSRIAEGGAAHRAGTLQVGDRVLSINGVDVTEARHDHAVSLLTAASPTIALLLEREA
Experimental: as §1

[2] = test system: Naive Crtam−/− CD4 T cells; assay: T cell polarization, Talin staining; format: cell-based; conditions: Crtam−/− CD4 T cells electroporated with Crtam plasmid; peptide 1.0 μM; restimulated after 6 h, fixed 14 h later
Experimental: (§2) Naïve Crtam^−/− CD4 T cells were purified and activated with plate-bound anti-CD3 and anti-CD28, as described. On day 4, T cells were electroporated with 4 μg of pIRES_GFP or pIRES_GFP/Crtam plasmid DNA by Amaxa Nucleofector (program X-01). Synthetic peptides (1.0 μM) were added into the cultures, and after 6 h, transfected cells were restimulated at 1 × 10^6 cells/ml with plate-bound antibodies and were fixed 14 h later for Talin staining. After 42 h, [^3H]-thymidine (1 μCi/well) was added, and the plates were harvested 8 h later.

[3] = test system: Naive Crtam−/− CD4 T cells; assay: T cell proliferation, [3H]-thymidine incorporation; format: cell-based; conditions: Crtam−/− CD4 T cells electroporated with Crtam plasmid; peptide 1.0 μM; [3H]-thymidine added after 42 h, harvested 8 h later; representative of three independent experiments
Experimental: as §2

Substance: Ac-HMARRVESEV [compound 9]
- Interaction with the SCRIB PDZ domains (in words) (SCRIB PDZ domains): interact with the SCRIB PDZ domains

Substance: Ac-KMARAARSKV-OH [peptide 11]
- IC50 [1]: > 500 µM
- IC50 (SCRIB-1): > 500 µM
- IC50 (SCRIB-3): > 500 µM
- IC50 (SCRIB-2): > 500 µM
- Interaction with the SCRIB PDZ domains (in words) (SCRIB PDZ domains): does not

Substance: Ac-KMERTIESEV [compound 10]
- Interaction with the SCRIB PDZ domains (in words) (SCRIB PDZ domains): interact with the SCRIB PDZ domains

Substance: Ac-PPRRHRETYV (N-terminus assumed) [peptide 12]
- Interaction with the ZO-1 PDZ domain (TJP1–1) (in words) [1]: bound to both
- Interaction with the SCRIB PDZ domains (in words) (SCRIB PDZ domains): bound to both

Substance: Ac-RQIKIWFQNRRMKWKKRSWFEAWA (N-terminus assumed) [peptide 15]
- Effect on late phase of T cell polarization (Talin staining) [2]: has no effect
- Effect on T cell proliferation ([3H]-thymidine incorporation) [3]: has no effect
- Interaction with the SCRIB PDZ domains (in words) (SCRIB PDZ domains; in vitro, synthesized peptides): nonbinding

Substance: Ac-RQIKIWFQNRRMKWKKRSWFETWV (N-terminus assumed) [peptide 14]
- Effect on late phase of T cell polarization (Talin staining) [2]: causes loss of late-phase T cell polarization
- Effect on T cell proliferation ([3H]-thymidine incorporation) [3]: triggers T cell proliferation; also recorded: reverses the hypoproliferative effects of Crtam
- Interaction with the SCRIB PDZ domains (in words) (SCRIB PDZ domains; in vitro, synthesized peptides): binds to the SCRIB PDZ domains with high affinity

Substance: Ac-RRRKRKRTYL (N-terminus assumed) [peptide 13]
- Interaction with the ZO-1 PDZ domain (TJP1–1) (in words) [1]: interacted only with this domain
- Interaction with the SCRIB PDZ domains (in words) (SCRIB PDZ domains): interacted only with this domain
